# Tests used:
# Acetylcholinesterase = Acetylcholinesterase (Homo sapiens, UniProt P22303); experiment: Inhibition of AChE (unknown origin)
# Cholinesterase = Cholinesterase (Homo sapiens, UniProt P06276); experiment: Inhibition of BChE (unknown origin)
# Cholinesterase, sequence (P06276 whole entry): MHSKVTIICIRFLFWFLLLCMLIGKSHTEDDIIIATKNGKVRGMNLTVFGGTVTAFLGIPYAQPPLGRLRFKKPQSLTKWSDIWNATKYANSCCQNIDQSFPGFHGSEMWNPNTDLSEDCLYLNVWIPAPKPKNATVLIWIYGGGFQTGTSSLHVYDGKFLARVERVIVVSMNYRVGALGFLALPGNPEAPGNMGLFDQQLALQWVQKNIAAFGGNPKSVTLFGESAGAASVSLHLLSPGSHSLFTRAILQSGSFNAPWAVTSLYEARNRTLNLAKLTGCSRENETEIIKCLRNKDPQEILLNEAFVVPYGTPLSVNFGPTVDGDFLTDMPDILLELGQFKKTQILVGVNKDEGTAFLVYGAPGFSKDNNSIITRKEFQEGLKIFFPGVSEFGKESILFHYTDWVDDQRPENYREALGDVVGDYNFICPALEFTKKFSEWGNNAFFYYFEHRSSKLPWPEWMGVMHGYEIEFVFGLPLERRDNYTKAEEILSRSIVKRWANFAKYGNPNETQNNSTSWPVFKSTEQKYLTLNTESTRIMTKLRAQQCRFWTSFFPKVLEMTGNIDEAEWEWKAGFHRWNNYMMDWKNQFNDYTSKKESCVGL
# Acetylcholinesterase, sequence (P22303 whole entry): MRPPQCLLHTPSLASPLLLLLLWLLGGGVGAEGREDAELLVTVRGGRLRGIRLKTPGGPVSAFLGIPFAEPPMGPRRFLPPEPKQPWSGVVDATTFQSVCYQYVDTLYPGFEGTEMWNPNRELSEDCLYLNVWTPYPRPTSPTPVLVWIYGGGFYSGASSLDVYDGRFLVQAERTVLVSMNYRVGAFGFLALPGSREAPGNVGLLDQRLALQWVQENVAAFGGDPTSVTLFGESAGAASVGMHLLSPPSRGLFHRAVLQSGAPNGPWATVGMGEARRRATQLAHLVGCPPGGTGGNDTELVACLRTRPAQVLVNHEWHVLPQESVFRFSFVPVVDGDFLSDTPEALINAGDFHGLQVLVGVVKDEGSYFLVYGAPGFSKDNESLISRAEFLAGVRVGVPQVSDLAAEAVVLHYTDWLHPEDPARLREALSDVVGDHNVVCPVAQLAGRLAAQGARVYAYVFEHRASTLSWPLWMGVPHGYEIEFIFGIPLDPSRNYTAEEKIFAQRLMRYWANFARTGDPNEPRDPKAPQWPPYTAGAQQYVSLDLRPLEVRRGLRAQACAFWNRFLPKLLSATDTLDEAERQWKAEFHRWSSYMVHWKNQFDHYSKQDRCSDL
Compound,IC50 (Acetylcholinesterase) [µM],IC50 (Cholinesterase) [µM]
O=[N+]([O-])C1C(Cc2c[nH]cn2)NC2(c3ccccc3-c3nc4ccccc4nc32)C1c1ccccc1 (configuration not stated),11.8,15.6
O=[N+]([O-])C1C(Cc2c[nH]cn2)NC2(c3ccccc3-c3nc4ccccc4nc32)C1c1ccco1 (configuration not stated),14.2,22.3
Cc1cccc(C2C([N+](=O)[O-])C(Cc3c[nH]cn3)NC23c2ccccc2-c2nc4ccccc4nc23)c1 (configuration not stated),7.8,13.6
O=[N+]([O-])C1C(Cc2c[nH]cn2)NC2(c3ccccc3-c3nc4ccccc4nc32)C1c1ccccn1 (configuration not stated),17,24.3
COc1cccc(C2C([N+](=O)[O-])C(Cc3c[nH]cn3)NC23c2ccccc2-c2nc4ccccc4nc23)c1 (configuration not stated),9.2,14.7
Cc1ccc(C2C([N+](=O)[O-])C(Cc3c[nH]cn3)NC23c2ccccc2-c2nc4ccccc4nc23)cc1 (configuration not stated),2.02,12.4
COc1ccc(C2C([N+](=O)[O-])C(Cc3c[nH]cn3)NC23c2ccccc2-c2nc4ccccc4nc23)cc1 (configuration not stated),2.05,11.5
COc1ccccc1C1C([N+](=O)[O-])C(Cc2c[nH]cn2)NC12c1ccccc1-c1nc3ccccc3nc12 (configuration not stated),5.22,14.2
Cc1ccccc1C1C([N+](=O)[O-])C(Cc2c[nH]cn2)NC12c1ccccc1-c1nc3ccccc3nc12 (configuration not stated),10,13.8
O=[N+]([O-])C1C(Cc2c[nH]cn2)NC2(c3ccccc3-c3nc4ccccc4nc32)C1c1ccc(Cl)cc1 (configuration not stated),18.2,21.6
O=[N+]([O-])C1C(Cc2c[nH]cn2)NC2(c3ccccc3-c3nc4ccccc4nc32)C1c1ccc(Br)cc1 (configuration not stated),16.2,26.6
